The text below walks through data of publication PMC8162438, “Cancer cell-selective modulation of mitochondrial respiration and metabolism by potent organogold(III) dithiocarbamates” (Chemical Science, 2020).

The nature of this data set: UV-vis stability in PBS, DMEM and RPMI-1640. The data set is classed as physicochemical. Conditions: 50 μM, DMEM, RPMI-1640, 37 °C, over 24 h. The text has this: We next evaluated the stability of all ten complexes in three relevant biological media, namely, PBS (phosphate-buffered saline), DMEM (Dulbecco's modified eagle medium), and RPMI-1640 (Roswell Park Memorial Institute-1640). RPMI-1640 contain several biological nucleophiles such as amino acids and extracellular relevant levels of GSH, which are common sources of reductants. Development of new drug molecules require proper characterization of compound stability in solution. To evaluate their stability, the complexes were prepared as a stock solution in DMSO (5 mM) and diluted with PBS or DMEM at room temperature to a final concentration of 50 μM. […]
UV-vis Stability in DMEM, PBS and RPMI-1640 at 37 °C. All spectra were recorded on a Shimadzu UV-1280 model instrument. […] Time periods of t = 0 h (after preparation of sample), 1 h, 6 h, 12 h, and 24 h were recorded. […] The absorbance profile was scanned from 650 nm to 240 nm for each scan. For each complex, the data were normalized to the highest absorbance at t = 0 h and plotted in GraphPad Prism 6. […]
Reactivity with GSH (UV-vis Spectroscopy). […] All spectra were recorded on a Shimadzu UV-1280 model instrument.
A blank was prepared by mixing 50 µL of DMSO and 1.95 mL of PBS. Time intervals of 5 minutes and 12 h were recorded. […] For each reaction, the spectrum was normalized to the highest absorbance and plotted in GraphPad Prism 6. […]

Entries after “also recorded” stand apart in the source; their conditions may differ.

Consider `C[N+](C)=C1[S][Au-2]2([S]1)[c]1ccccc1C(=O)c1cccc[n+]12.F[P-](F)(F)(F)(F)F` (centres unmarked) [1a], for which the “Stability in biological media (UV-vis absorbance)” value is reported as “no significant decrease in absorbance”.
The entry for `C[N+](C)=C1[S][Au-2]2([S]1)[c]1ccccc1Cc1cccc[n+]12.F[P-](F)(F)(F)(F)F` (centres unmarked) [2a] is “higher stability in PBS, and DMEM; also recorded: no significant decrease in absorbance”.
